# Experimental data from patent US9073821B2, “Hydroxamic acid derivative” (priority 2010, dated 2015).
# Read-outs that look alike come from different tables or passages of the source.
# Target: Pseudomonas aeruginosa LpxC enzyme (Pseudomonas aeruginosa (strain ATCC 15692 / DSM 22644 / CIP 104116 / JCM 14847 / LMG 12228 / 1C / PRS 101 / PAO1), UniProt P47205)
# Test: biochemical
# Format: biochemical
# [1] = class symbols A/B/C by IC50, Table 3, read-out: Enzyme inhibitory activity (inhibitory activity on Pseudomonas aeruginosa LpxC enzyme)
# [2] = inhibitory activity on Pseudomonas aeruginosa LpxC enzyme, class symbols A/B/C, read-out: Enzyme inhibitory activity
IC50 [1],IC50 [2],SMILES
< 10 nM,,"CCOC1CN(Cc2ccc(C#Cc3ccc(C(=O)N(C)C(C(=O)NC)C(=O)NO)cc3)c(C(F)(F)F)c2)C1 (stereo not shown) [Compound 574, 2-[{[4-({4-[(3-ethoxyazetidin-1-yl)methyl]-2-(trifluoromethyl)phenyl}ethynyl)phenyl]carbonyl}(methyl)amino]-N-hydroxy-N′-methylpropanediamide]"
,< 10 nM,"CNC(=O)C(C(=O)NO)N(C)C(=O)c1ccc(C#Cc2ccc(CN3CCCCC3)cc2)cc1 (stereo not shown) [Compound 234, N-hydroxy-N′-methyl-2-[methyl(4-{[4-(piperidin-1-ylmethyl)phenyl]ethynyl}benzoyl)amino]propanediamide]"
< 10 nM,,"CNC(=O)[C@@](C)(C(=O)NO)N(C)C(=O)c1ccc(C#Cc2coc(C)n2)cc1 [Compound 575, (2S)-N-hydroxy-N′,2-dimethyl-2-[methyl({4-[(2-methyl-1,3-oxazol-4-yl)ethynyl]phenyl}carbonyl)amino]propanediamide]"
< 10 nM,,"CNC(=O)[C@@](C)(C(=O)NO)N(C)C(=O)c1ccc(C#Cc2coc(CN3CCCOCC3)c2)cc1 [Compound 583, (2S)-N-hydroxy-N′,2-dimethyl-2-{methyl[(4-{[5-(1,4-oxazepan-4-ylmethyl)furan-3-yl]ethynyl}phenyl)carbonyl]amino}propanediamide]"
,10 to 100 nM,"CNC(=O)C(C(=O)NO)N(C)C(=O)c1ccc(-c2ccc(OC)c(OC)c2)cc1 (stereo not shown) [Compound 55, 2-{[(3′,4′-dimethoxybiphenyl-4-yl)carbonyl](methyl)amino}-N-hydroxy-N′-methylpropanediamide]"
,< 10 nM,"CNC(=O)C(C(=O)NO)N(C)C(=O)c1ccc(-c2c(F)c(F)c(NC)c(F)c2F)cc1 (stereo not shown) [Compound 72, N-hydroxy-N′-methyl-2-(methyl {[2′,3′,5′,6′-tetrafluoro-4′-(methylamino)biphenyl-4-yl]carbonyl}amino)propanediamide]"
,10 to 100 nM,"CNC(=O)C(C(=O)NO)N(C)C(=O)c1ccc(-c2ccc(C(C)(C)O)cc2)cc1 (stereo not shown) [Compound 262, N-hydroxy-2-[{[4′-(2-hydroxypropan-2-yl)biphenyl-4-yl]carbonyl}(methyl)amino]-N′-methylpropanediamide]"
,< 10 nM,"CNC(=O)C(C(=O)NO)N(C)C(=O)c1ccc(-c2cccc(C)c2)cc1 (stereo not shown) [Compound 29, N-hydroxy-N′-methyl-2-{methyl[(3′-methylbiphenyl-4-yl)carbonyl]amino}propanediamide]"
< 10 nM,,"CNC(=O)C(C(=O)NO)N(C)C(=O)c1ccc(C#Cc2coc(COC)c2)cc1 (stereo not shown) [Compound 514, N-hydroxy-2-{[(4-{[5-(methoxymethyl)furan-3-yl]ethynyl}phenyl)carbonyl](methyl)amino}-N′-methylpropanediamide]"
,< 10 nM,"CNC(=O)C(C(=O)NO)N(C)C(=O)c1ccc(C#Cc2ccc(CN3CCC(OC)CC3)cc2)cc1 (stereo not shown) [Compound 383, N-hydroxy-2-[{[4-({4-[(4-methoxypiperidin-1-yl)methyl]phenyl}ethynyl)phenyl]carbonyl}(methyl)amino]-N′-methylpropanediamide]"
,< 10 nM,"CNC(=O)C(C(=O)NO)N(C)C(=O)c1ccc(-c2ccc(/C=N/O)cc2)cc1 (stereo not shown) [Compound 195, N-hydroxy-2-[({4′-[(E)-(hydroxyimino)methyl]biphenyl-4-yl}carbonyl)(methyl)amino]-N′-methylpropanediamide]"
,< 10 nM,"CNC(=O)C(NC(=O)c1ccc(C#Cc2ccc(NCCO)cc2)cc1)C(=O)NO (stereo not shown) [Compound 115, N-hydroxy-2-{[4-({4-[(2-hydroxyethyl)amino]phenyl}ethynyl)benzoyl]amino}-N′-methylpropanediamide]"
10 to 100 nM,,"CNC(=O)[C@@](C)(C(=O)NO)N(C)C(=O)c1ccc(C#Cc2csc(C)n2)cc1 [Compound 586, (2S)-N-hydroxy-N′,2-dimethyl-2-[methyl({4-[(2-methyl-1,3-thiazol-4-yl)ethynyl]phenyl}carbonyl)amino]propanediamide]"
,10 to 100 nM,"CNC(=O)C(C(=O)NO)N(C)C(=O)c1ccc(CCc2ccc(CCN3CCCOCC3)cc2)cc1 (stereo not shown) [Compound 210, N-hydroxy-N′-methyl-2-{methyl[4-(2-{4-[2-(1,4-oxazepan-4-yl)ethyl]phenyl}ethyl)benzoyl]amino}propanediamide]"
,< 10 nM,"CNC(=O)C(C(=O)NO)N(C)C(=O)c1ccc(-c2ccc3c(c2)N(C)C(=O)CO3)cc1 (stereo not shown) [Compound 82, N-hydroxy-N′-methyl-2-{methyl[4-(4-methyl-3-oxo-3,4-dihydro-2H-1,4-benzoxazin-6-yl)benzoyl]amino}propanediamide]"
,10 to 100 nM,"CNC(=O)C(C(=O)NO)N(C)C(=O)c1ccc(C#Cc2ccnc(C)c2)cc1 (stereo not shown) [Compound 464, N-hydroxy-N′-methyl-2-[methyl({4-[(2-methylpyridin-4-yl)ethynyl]phenyl}carbonyl)amino]propanediamide]"
,< 10 nM,"CNC(=O)C(C(=O)NO)N(C)C(=O)c1ccc(-c2ccc(/C=N/OC)cc2)cc1 (stereo not shown) [Compound 260, N-hydroxy-2-[({4′-[(E)-(methoxyimino)methyl]biphenyl-4-yl}carbonyl)(methyl)amino]-N′-methylpropanediamide]"
,< 10 nM,"CNC(=O)[C@@](C)(C(=O)NO)N(C)C(=O)c1ccc(C#Cc2ccc(CCN3CCCOCC3)cc2)cc1 [Compound 438, (2S)-N-hydroxy-N′,2-dimethyl-2-{methyl[4-({4-[2-(1,4-oxazepan-4-yl)ethyl]phenyl}ethynyl)benzoyl]amino}propanediamide]"
,> 100 nM,"CNC(=O)C(C(=O)NO)N(C)C(=O)c1ccc(C#Cc2ccn(C)n2)cc1 (stereo not shown) [Compound 418, N-hydroxy-N′-methyl-2-[methyl({4-[(1-methyl-1H-pyrazol-3-yl)ethynyl]phenyl}carbonyl)amino]propanediamide]"
,< 10 nM,"CNC(=O)C(C(=O)NO)N(C)C(=O)c1ccc(-c2ccc3c(c2)OC(F)(F)O3)cc1 (stereo not shown) [Compound 258, 2-{[4-(2,2-difluoro-1,3-benzodioxol-5-yl)benzoyl](methyl)amino}-N-hydroxy-N′-methylpropanediamide]"
,< 10 nM,"CNC(=O)C(C(=O)NO)N(C)C(=O)c1ccc(-c2ccc(OCCCN(C)Cc3c(F)cccc3F)cc2)cc1 (stereo not shown) [Compound 92, 2-{[(4′-{3-[(2,6-difluorobenzyl)(methyl)amino]propoxy}biphenyl-4-yl)carbonyl](methyl)amino}-N-hydroxy-N′-methylpropanediamide]"
,> 100 nM,"CNC(=O)C(C(=O)NO)N(C)C(=O)c1ccc(-c2ncccc2F)cc1 (stereo not shown) [Compound 107, 2-{[4-(3-fluoropyridin-2-yl)benzoyl](methyl)amino}-N-hydroxy-N′-methylpropanediamide]"
,10 to 100 nM,"CNC(=O)C(C(=O)NO)N(C)C(=O)c1ccc(-c2ccc(NCCCN(C)Cc3ccccc3)cc2)cc1 (stereo not shown) [Compound 97, 2-[{[4′-({3-[benzyl(methyl)amino]propyl}amino)biphenyl-4-yl]carbonyl}(methyl)amino]-N-hydroxy-N′-methylpropanediamide]"
,10 to 100 nM,"CNC(=O)C(C(=O)NO)N(C)C(=O)c1ccc(-c2ccc3c(c2)ncn3C)cc1 (stereo not shown) [Compound 281, N-hydroxy-N′-methyl-2-{methyl[4-(1-methyl-1H-benzimidazol-5-yl)benzoyl]amino}propanediamide]"
,> 100 nM,"CNC(=O)C(C(=O)NO)N(C)C(=O)c1ccc(-c2cnco2)cc1 (stereo not shown) [Compound 310, N-hydroxy-N′-methyl-2-(methyl {[4-(1,3-oxazol-5-yl)phenyl]carbonyl}amino)propanediamide]"
